{"source": "patent US6596764B1", "about": "“Method of preparing diacetyl rhein” (Laboratoire Medidom S.A., priority 1991, dated 2003)", "key": {"[1]": {"tested_on": "arthrosis in rabbits induced by the intraarticular administration of vitamin A", "experiment": "Vitamin A arthrosis in rabbits (chronic inflammation model, oral administration)", "format": "in vivo, rabbit (white New Zealanders)", "conditions": "for clinical signs of arthrosis (disturbances of movement, dragging of the rear legs): 7 rabbits", "procedure": "The effectiveness of diacetylrhein was determined in chronic inflammation models after oral administration.\nThe following experimental models were used: cotton pellet granuloma in rats and arthrosis in rabbits induced by the intraarticular administration of vitamin A.\nAn arthrosis-like joint change was initiated in two groups each of 10 rabbits (white New Zealanders) by means of three intraarticular injections of 30,000 IU of vitamin A over the course of 9 days. 56 days later, 10 animals were treated with 3 mg of diacetylrhein/kg/day for 8 weeks.\nFurthermore, the curative action of diacetylrhein was compared with that of acetylsalicylic acid on each of 7 rabbits which, after 6 days pre-treatment with three times 10,000 IU vitamin A and a 26 day treatment-free interval for 8 weeks, received either 5 mg of diacetylrhein/kg/day (experimental group), 15 mg of acetylsalicylic acid/kg/day (positive control group) or remained untreated (negative control group). […] In the negative control group, during the following 8 weeks, the clinical signs of a manifest arthrosis increased."}, "[2]": {"tested_on": "mucosal lesions in patients with osteoarthrosis", "experiment": "Clinical randomised double blind double dummy compatibility study (oesophagogastroduodenoscopic findings)", "format": "in vivo, human", "conditions": "after 4 weeks", "procedure": "4. The action of diacetylrhein was investigated in 23 patients (12/11) with osteoarthrosis in a randomised double blind study using the “double dummy technique” (compatibility study). The dosage administered was 50 mg of diacetylrhein twice daily and 250 mg of naproxen three times daily. The period of treatment was 4 weeks. The test parameters were then oesophagogastroduodenoscopic findings before and after the therapy. Only patients with normal mucosal findings or with slight mucosal lesions (grade 1) were used in the study."}, "[3]": {"tested_on": "gastric mucosa", "experiment": "Gastric mucosa changes in the rat", "format": "in vivo"}, "[4]": {"tested_on": "localised arthrosis", "experiment": "Clinical single blind crossover study against naproxen", "format": "in vivo, human", "conditions": "20 patients", "procedure": "3. The action of diacetylrhein in the case of localised arthrosis in 20 patients was investigated in a single blind crossover study against naproxen. The patients were divided up into two groups: in the first group, initially 50 mg of diacetylrhein was administered twice daily for 20 days. Subsequently, there followed a three day wash-out phase and a further treatment with 250 mg of naproxen twice daily for a further 20 days. In the second group, the reverse sequence was used. The period of treatment was, in all, 43 days. The test parameters of pain, compression pain, passive movement pain, function limitation and swelling were determined according to a score system."}, "[5]": {"tested_on": "coxarthrosis and gonarthrosis", "experiment": "Clinical double-blind study against naproxen with subsequent placebo after-treatment", "format": "in vivo, human", "conditions": "for improvement of all test parameters (pain and movement symptoms score, function limitation, compatibility) vs initial values: patients, 60 days", "procedure": "1. The action of diacetylrhein was investigated in coxarthrosis and gonarthrosis in 95 (49/46) patients in a double-blind study against naproxen and subsequent placebo after-treatment. The dosage administered was 50 mg of diacetylrhein twice daily or 750 mg of naproxen daily. The period of treatment was 60 days after a 7 day wash-out phase. The subsequent placebo treatment extended over 60 days. Test parameters were the pain and movement symptoms according to a score scale, function limitation and compatibility."}, "[6]": {"tested_on": "osteoarthrosis of the spine and of the knee", "experiment": "Clinical open running study with control (physiotherapy)", "format": "in vivo, human", "procedure": "2. In an open running study with control, there was investigated the action of diacetylrhein against osteoarthrosis of the spine and of the knee in 70 patients (35/35). The dosage administered was 100 mg of diacetylrhein per day. The period of treatment was 60 days and the period of observation was 75 days. The test parameters were pain and movement limitation. The parameters were evaluated according to a score system. The control group comprised 35 patients in the case of which exclusively physiotherapeutic measures were carried out. Physiotherapy was also carried out in the diacetylrhein treatment group."}, "[7]": {"experiment": "in vivo", "conditions": "rat, mouse, cat"}, "[8]": {"tested_on": "cotton pellet granuloma", "experiment": "Cotton pellet granuloma in rats (chronic inflammation model, oral administration)", "format": "in vivo, rat", "procedure": "The effectiveness of diacetylrhein was determined in chronic inflammation models after oral administration. The following experimental models were used: cotton pellet granuloma in rats and arthrosis in rabbits induced by the intraarticular administration of vitamin A. a) Cotton pellet granuloma in rats. Young sexually mature rats (n=10) were given 25, 50 or 100 mg diacetylrhein/kg or 5 mg indomethacin/kg or 100 mg acetylsalicylic acid/kg daily for 5 days. A control group only treated with water was also used. Implantation of the pellets took place on the first day of treatment."}, "[9]": {"conditions": "50 mg of diacetylrhein twice daily"}, "[10]": {"conditions": "crossover study, 43 days in all"}, "[11]": {"conditions": "250 mg of naproxen three times daily"}}}
{"smiles": "CC(=O)Oc1ccccc1C(=O)O", "note": "[acetylsalicylic acid, reference compound]", "values": [{"measurement": "clinical signs of arthrosis (disturbances of movement, dragging of the rear legs)", "setting": "[1]; 15 mg of acetylsalicylic acid/kg/day for 8 weeks (positive control group)", "result": "improved significantly"}]}
{"smiles": "CC(=O)Oc1cccc2c1C(=O)c1c(OC(C)=O)cc(C(=O)O)cc1C2=O", "note": "[diacetylrhein]", "values": [{"measurement": "number of cases with mucosal lesions of grade 2 (endoscopic findings)", "setting": "[2]; [9]", "result": "one"}, {"measurement": "share of patients with mucosal lesions of grade 2 (endoscopic findings)", "setting": "[2]; [9]", "result": 10, "unit": "%"}, {"measurement": "erosions of the gastric mucosa", "setting": "[3]; single administration of 400 mg/kg", "result": "did not give rise to any erosions"}, {"measurement": "gastric mucosal damage", "setting": "[3]; twice daily 100 mg/kg over the course of 3 days", "result": "did not initiate any mucosal damage"}, {"measurement": "clinical laboratory parameters", "setting": "[4]; [10]", "result": "no changes"}, {"measurement": "side effects", "setting": "[4]; [10]", "result": "No noteworthy side effects"}, {"measurement": "pain, compression pain, passive movement pain, function limitation and swelling (score system), vs naproxen", "setting": "[4]; crossover, 50 mg diacetylrhein twice daily 20 days vs 250 mg naproxen twice daily 20 days", "result": "superiority"}, {"measurement": "clinical signs of arthrosis (disturbances of movement, dragging of the rear legs)", "setting": "[1]; 5 mg of diacetylrhein/kg/day for 8 weeks after 3 x 10,000 IU vitamin A and 26 day treatment-free interval", "result": "improved significantly"}, {"measurement": "macroscopically and microscopically recognisable joint changes", "setting": "[1]; rabbits, 3 mg/kg/day for 8 weeks starting 56 days after 3 x 30,000 IU vitamin A, in comparison with control group", "result": "significantly reduced"}, {"measurement": "night pain and pressure pain after discontinuation, vs naproxen/placebo collective", "setting": "[5]; 30 days after discontinuation of diacetylrhein, 5% level", "result": "difference was also verified"}, {"measurement": "spontaneous pain and active and passive movement pain after discontinuation, vs naproxen/placebo collective", "setting": "[5]; days 90 and 120, under subsequent placebo, P<0.01", "result": "statistically significant superiority"}, {"measurement": "improvement of all test parameters (pain and movement symptoms score, function limitation, compatibility) vs initial values", "setting": "[5]; 50 mg of diacetylrhein twice daily, P<0.01", "result": "statistically significant rate of improvement"}, {"measurement": "pain and movement limitation (score system), treatment group vs control group", "setting": "[6]; 35/35 patients, 100 mg per day plus physiotherapy for 60 days vs physiotherapy only", "result": "statistically significant superiority"}, {"measurement": "effect after discontinuation of the treatment", "setting": "[6]; period of observation 75 days, treatment 60 days, 100 mg per day", "result": "continuing therapeutic effect (hang-over effect)"}, {"measurement": "LD50", "setting": "[7]", "result": "119 to 339", "unit": "mg/kg"}, {"measurement": "LD50", "setting": "[7]; po", "result": "1900 to 7900", "unit": "mg/kg"}, {"measurement": "Fresh and dry weights of the granuloma", "setting": "[8]; rats (n=10), oral, 25, 50 or 100 mg diacetylrhein/kg daily for 5 days, in comparison with water-treated control group", "result": "significant and clearly dosage-dependent reduction"}, {"measurement": "action on granuloma weights compared with reference drugs", "setting": "[8]; rats, oral, 100 mg diacetylrhein/kg daily for 5 days vs 5 mg indomethacin/kg or 100 mg acetylsalicylic acid/kg", "result": "corresponded to about the action of 5 mg indomethacin or of 100 mg acetylsalicylic acid"}, {"measurement": "weights of the thymus and adrenals", "setting": "[8]; rats, oral, daily treatment for 5 days", "result": "did not change"}]}
{"smiles": "COc1ccc2cc([C@H](C)C(=O)O)ccc2c1", "note": "[naproxen, reference compound]", "values": [{"measurement": "number of patients with mucosal lesions of grade 2, 3 and 4 (endoscopic findings)", "setting": "[2]; [11]", "result": 5, "unit": "patients"}, {"measurement": "share of patients with mucosal lesions of grade 2, 3 and 4 (endoscopic findings)", "setting": "[2]; [11]", "result": 50, "unit": "%"}, {"measurement": "improvement of all test parameters (pain and movement symptoms score, function limitation, compatibility) vs initial values", "setting": "[5]; 750 mg of naproxen daily, P<0.05", "result": "statistically significant rate of improvement"}]}
